Measured values: patent US12552783B2, “Modulators of proteolysis and associated methods of use” (Arvinas Operations, Inc., priority 2018, dated 2026)

Biological target: KRas (Homo sapiens, UniProt P01116, G12C)
Assay: KRas degradation in NCI-H2030 cells by Western blot, normalized to GAPDH (data of Table 14)
Type: cell-based
Set-up: host or cells: NCI-H2030
Conditions: for Dmax: NCI-H2030
In short: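 Cells serum-starved 24 h, then treated at 0.3, 1 and 3 μM in 0.1% DMSO, 24 h for VHL-based compounds and 72 h for others. Lysates (10 μg protein) immunoblotted; KRas normalized to GAPDH, degradation visually estimated below 25% or quantified versus DMSO lane, giving DC50 and DMax.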

Percent Degradation at Indicated Concentration (μM) (H2030 cells, 0.3 μM) | Percent Degradation at Indicated Concentration (μM) (H2030 cells, 1 μM) | Percent Degradation at Indicated Concentration (μM) (H2030 cells, 3 μM) | Percent Degradation at Indicated Concentration (μM) (H2030, 0.3 μM) | Percent Degradation at Indicated Concentration (μM) (H2030, 1 μM) | Percent Degradation at Indicated Concentration (μM) (H2030, 3 μM) | Dmax | SMILES
C (Percent Degradation: C ≤ 35) | C (Percent Degradation: C ≤ 35) | C (Percent Degradation: C ≤ 35) |  |  |  |  | Cc1ncsc1-c1ccc([C@H](C)NC(=O)[C@@H]2C[C@@H](O)CN2C(=O)[C@@H](NC(=O)COCCOCCOCCOCCN(C)C(=O)CCNc2nc(N3CCN(C(=O)C(O)O)CC3)c3cc(Cl)c(-c4c(O)cccc4F)c(F)c3n2)C(C)(C)C)cc1 (atropisomer, axis not shown) [compound 240, (2S,4R)-1-((S)-2-(tert-butyl)-21-(((S)-6-chloro-4-(4-(2,2-dihydroxyacetyl)piperazin-1-yl)-8-fluoro-7-(2-fluoro-6-hydroxyphenyl)quinazolin-2-yl)amino)-18-methyl-4,19-dioxo-6,9,12,15-tetraoxa-3,18-diazahenicosanoyl)-4-hydroxy-N-((S)-1-(4-(4-methylthiazol-5-yl)phenyl)ethyl)pyrrolidine-2-carboxamide]
 |  |  | C (Percent Degradation: C ≤ 35) | C (Percent Degradation: C ≤ 35) | C (Percent Degradation: C ≤ 35) | ≤ 35% | C=CC(=O)N1CCN(c2nc(NCCC(=O)N(C)CCOCCOc3ccc(-c4csc([C@@H]5CCCN5C(=O)[C@@H](NC(=O)[C@H](C)NC)C5CCCCC5)n4)c4ccccc34)nc3c(F)c(-c4c(O)cccc4F)c(Cl)cc23)CC1 (atropisomer, axis not shown) [compound 276, 3-((4-(4-acryloylpiperazin-1-yl)-6-chloro-8-fluoro-7-((S)-2-fluoro-6-hydroxyphenyl)quinazolin-2-yl)amino)-N-(2-(2-((4-(2-((S)-1-((S)-2-cyclohexyl-2-((S)-2-(methylamino)propan-amido)acetyl)pyrrolidin-2-yl)thiazol-4-yl)naphthalen-1-yl)oxy)ethoxy)ethyl)-N-methylpropanamide]
 |  |  | C (Percent Degradation: C ≤ 35) | C (Percent Degradation: C ≤ 35) | C (Percent Degradation: C ≤ 35) | ≤ 35% | C=CC(=O)N1CCN(c2nc(NCCC(=O)N(C)CCOCCOCCOCCOc3ccc(-c4csc([C@@H]5CCCN5C(=O)[C@@H](NC(=O)[C@H](C)NC)C5CCCCC5)n4)c4ccccc34)nc3c(F)c(-c4c(O)cccc4F)c(Cl)cc23)CC1 (atropisomer, axis not shown) [compound 278, 3-((4-(4-acryloylpiperazin-1-yl)-6-chloro-8-fluoro-7-((S)-2-fluoro-6-hydroxyphenyl)quinazolin-2-yl)amino)-N-(2-(2-(2-(2-((4-(2-((S)-1-((S)-2-cyclohexyl-2-((S)-2-(methylamino)propan-amido)acetyl)pyrrolidin-2-yl)thiazol-4-yl)naphthalen-1-yl)oxy)ethoxy)ethoxy)eth-oxy)ethyl)-N-methylpropanamide]
 |  |  | C (Percent Degradation: C ≤ 35) | C (Percent Degradation: C ≤ 35) | C (Percent Degradation: C ≤ 35) | ≤ 35% | C=CC(=O)N1CCN(c2nc(NCCC(=O)N(C)CCOCCNC(=O)c3ccc(NC(=O)[C@@H]4N[C@@H](CC(C)(C)C)[C@](C#N)(c5ccc(Cl)cc5F)[C@H]4c4cccc(Cl)c4F)c(OC)c3)nc3c(F)c(-c4c(O)cccc4F)c(Cl)cc23)CC1 (atropisomer, axis not shown) [compound 307, (2R,3S,4R,5S)-N-(4-((2-(2-(3-((4-(4-acryloylpiperazin-1-yl)-6-chloro-8-fluoro-7-((S)-2-fluoro-6-hydroxyphenyl)quinazolin-2-yl)amino)-N-methylpropanamido)ethoxy)eth-yl)carbamoyl)-2-methoxyphenyl)-3-(3-chloro-2-fluorophenyl)-4-(4-chloro-2-fluorophenyl)-4-cyano-5-neopentylpyrrolidine-2-carboxamide]
